Data: the supplement of paper PMC10307832

What was measured:
Experiment in all cases: relative viability (nuclei count vs DMSO), 5 days (fraction); higher = more cells survive
AZD8055 + Phenformin = compound: COc1ccc(-c2ccc3c(N4CCOC[C@@H]4C)nc(N4CCOC[C@@H]4C)nc3n2)cc1CO [AZD8055] + N=C(N)NC(=N)NCCc1ccccc1 [Phenformin] (partner 250 µM)
Summary of the method: (§1)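 Lung cancer cell lines, seeded in 1536-well plates, were treated the following day by pin tool with a single drug or with five library-drug doses (not always all listed) in √10 steps on top of a fixed anchor-drug dose. Cells were fixed and nuclei stained in one step after 5 days, and nuclei were counted. Relative viability is the nuclei count for treated wells divided by that for vehicle wells, reported as medians of duplicate plates.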

AZD8055 + OSI-027 = compound: COc1ccc(-c2ccc3c(N4CCOC[C@@H]4C)nc(N4CCOC[C@@H]4C)nc3n2)cc1CO [AZD8055] + COc1cccc2cc(-c3nc([C@H]4CC[C@H](C(=O)O)CC4)n4ncnc(N)c34)[nH]c12 [OSI-027] (partner 0.5 µM)
Summary of the method: as §1

AZD8055 + Trametinib = compound: COc1ccc(-c2ccc3c(N4CCOC[C@@H]4C)nc(N4CCOC[C@@H]4C)nc3n2)cc1CO [AZD8055] + CC(=O)Nc1cccc(-n2c(=O)n(C3CC3)c(=O)c3c(Nc4ccc(I)cc4F)n(C)c(=O)c(C)c32)c1 [Trametinib] (partner 0.02 µM)
Summary of the method: as §1

AZD8055 + Crizotinib = compound: COc1ccc(-c2ccc3c(N4CCOC[C@@H]4C)nc(N4CCOC[C@@H]4C)nc3n2)cc1CO [AZD8055] + C[C@@H](Oc1cc(-c2cnn(C3CCNCC3)c2)cnc1N)c1c(Cl)ccc(F)c1Cl [Crizotinib] (partner 1 µM)
Summary of the method: as §1

Cell Line | relative viability (AZD8055 + Phenformin; first compound 0.01 µM) | relative viability (AZD8055 + Phenformin; first compound 0.03162 µM) | relative viability (AZD8055 + Phenformin; first compound 0.1 µM) | relative viability (AZD8055 + Phenformin; first compound 0.3162 µM) | relative viability (AZD8055 + Phenformin; first compound 1 µM) | relative viability (AZD8055 + OSI-027; first compound 0.01 µM) | relative viability (AZD8055 + OSI-027; first compound 0.03162 µM) | relative viability (AZD8055 + OSI-027; first compound 0.1 µM) | relative viability (AZD8055 + OSI-027; first compound 0.3162 µM) | relative viability (AZD8055 + OSI-027; first compound 1 µM) | relative viability (AZD8055 + Trametinib; first compound 0.01 µM) | relative viability (AZD8055 + Trametinib; first compound 0.03162 µM) | relative viability (AZD8055 + Trametinib; first compound 0.1 µM) | relative viability (AZD8055 + Trametinib; first compound 0.3162 µM) | relative viability (AZD8055 + Trametinib; first compound 1 µM) | relative viability (AZD8055 + Crizotinib; first compound 0.01 µM) | relative viability (AZD8055 + Crizotinib; first compound 0.03162 µM) | relative viability (AZD8055 + Crizotinib; first compound 0.1 µM) | relative viability (AZD8055 + Crizotinib; first compound 0.3162 µM) | relative viability (AZD8055 + Crizotinib; first compound 1 µM)
NCI-H23 | 0.785 | 0.778 | 0.713 | 0.465 | 0.403 | 0.673 | 0.555 | 0.626 | 0.426 | 0.323 | 0.277 | 0.314 | 0.33 | 0.227 | 0.22 | 0.562 | 0.507 | 0.41 | 0.295 | 0.265
NCI-H322M | 0.726 | 0.704 | 0.662 | 0.501 | 0.502 | 0.56 | 0.602 | 0.582 | 0.476 | 0.431 | 0.522 | 0.467 | 0.486 | 0.481 | 0.398 | 0.868 | 1.03 | 0.825 | 0.796 | 0.478
NCI-H358 | 0.362 | 0.387 | 0.294 | 0.151 | 0.121 | 0.871 | 0.708 | 0.576 | 0.29 | 0.164 | 0.144 | 0.144 | 0.116 | 0.106 | 0.116 | 0.678 | 0.934 | 0.69 | 0.442 | 0.211
NCI-H441 | 0.767 | 0.574 | 0.628 | 0.27 | 0.343 | 0.676 | 0.647 | 0.476 | 0.408 | 0.339 | 0.432 | 0.452 | 0.282 | 0.229 | 0.201 | 0.767 | 0.667 | 0.565 | 0.359 | 0.232
NCI-H460 | 0.609 | 0.474 | 0.124 | 0.049 | 0.034 | 0.85 | 0.47 | 0.506 | 0.141 | 0.124 | 0.144 | 0.129 | 0.0855 | 0.0696 | 0.0537 | 1.05 | 0.654 | 0.818 | 0.106 | 0.0777
NCI-H520 | 0.467 | 0.219 | 0.211 | 0.158 | 0.156 | 0.236 | 0.254 | 0.188 | 0.184 | 0.16 | 0.581 | 0.246 | 0.267 | 0.109 | 0.137 | 0.58 | 0.53 | 0.37 | 0.195 | 0.194
NCI-H596 | 0.777 | 0.685 | 0.608 | 0.407 | 0.375 | 0.685 | 0.731 | 0.582 | 0.413 | 0.315 | 0.704 | 0.676 | 0.577 | 0.411 | 0.404 | 1 | 0.78 | 0.624 | 0.322 | 0.423
NCI-H647 | 0.564 | 0.412 | 0.331 | 0.14 | 0.15 | 0.514 | 0.624 | 0.568 | 0.315 | 0.193 | 0.538 | 0.345 | 0.322 | 0.136 | 0.127 | 1 | 0.619 | 0.445 | 0.303 | 0.177
NCI-H650 | 0.473 | 0.378 | 0.429 | 0.305 | 0.302 | 0.528 | 0.492 | 0.602 | 0.368 | 0.344 | 1.13 | 1.09 | 0.888 | 0.469 | 0.353 | 0.763 | 0.712 | 0.626 | 0.395 | 0.292
NCI-H661 | 0.245 | 0.262 | 0.287 | 0.248 | 0.261 | 0.782 | 0.668 | 0.575 | 0.41 | 0.341 | 0.518 | 0.426 | 0.451 | 0.31 | 0.325 | 1.06 | 1.1 | 1.07 | 0.634 | 0.567
NCI-H727 | 0.542 | 0.38 | 0.584 | 0.33 | 0.327 | 0.674 | 0.604 | 0.49 | 0.351 | 0.409 | 0.352 | 0.399 | 0.368 | 0.37 | 0.458 | 0.994 | 0.896 | 0.536 | 0.292 | 0.279
NCI-H838 | 0.553 | 0.362 | 0.354 | 0.233 | 0.218 | 0.377 | 0.404 | 0.383 | 0.262 | 0.31 | 0.499 | 0.335 | 0.279 | 0.19 | 0.201 | 0.969 | 0.745 | 0.476 | 0.293 | 0.307
NCI-H1355 | 0.442 | 0.396 | 0.344 | 0.286 | 0.28 | 0.393 | 0.414 | 0.372 | 0.314 | 0.273 | 0.379 | 0.321 | 0.29 | 0.211 | 0.211 | 1.12 | 0.851 | 0.587 | 0.231 | 0.231
NCI-H1437 | 0.315 | 0.299 | 0.301 | 0.206 | 0.203 | 0.973 | 0.88 | 0.753 | 0.354 | 0.389 | 0.524 | 0.527 | 0.381 | 0.247 | 0.207 | 0.946 | 0.963 | 0.899 | 0.337 | 0.19
NCI-H1650 | 0.534 | 0.518 | 0.383 | 0.288 | 0.266 | 0.678 | 0.776 | 0.484 | 0.435 | 0.39 | 0.724 | 0.544 | 0.502 | 0.394 | 0.261 | 0.919 | 1.24 | 1.02 | 0.518 | 0.43
NCI-H1651 | 0.323 | 0.318 | 0.329 | 0.261 | 0.232 | 0.871 | 0.682 | 0.603 | 0.32 | 0.413 | 0.809 | 0.715 | 0.735 | 0.582 | 0.462 | 0.896 | 0.738 | 0.786 | 0.633 | 0.529
